The results in this text go back to PMC10475565 (2023).

The subject of experiment [1] is d(T3G4T3) (DNA, G4) TTTGGGGTTT
Kind of experiment: ITC. As to conditions: 60 mM KCl; 10 mM sodium cacodylate, 0.5 mM EDTA, pH 7.0, 20 °C; one binding event, isotherm not fitted.

For experiment [2], the system named is d(T2G4T2) (DNA, G4) TTGGGGTT
As to the kind of experiment: ITC. As to conditions: 60 mM KCl; 10 mM sodium cacodylate, 0.5 mM EDTA, pH 7.0, 20 °C.

Experiment [3] relates to d(UG4T) (DNA, G4, 2'-deoxyuridine at 1) UGGGGT. Kind of experiment: ITC. The note with it: 60 mM KCl; 10 mM sodium cacodylate, 0.5 mM EDTA, pH 7.0, 20 °C.
Experiment [4] concerns CEB1 (DNA, G4) AGGGGGGAGGGAGGGTGG
Kind of experiment: ITC. As to conditions: 60 mM KCl; 10 mM sodium cacodylate, 0.5 mM EDTA, pH 7.0, 20 °C.

Experiment [5] concerns d(TG4T) (DNA, G4) TGGGGT. As to the kind of experiment: ITC. As to conditions: 60 mM KCl, 10 mM sodium cacodylate, 0.5 mM EDTA, pH 7.0, 20 °C.
Experiment [6] concerns d(TG4T) (DNA, G4) TGGGGT. As to the kind of experiment: fluorescent intercalator displacement. The note with it: 10 mM sodium cacodylate, 0.5 mM EDTA, pH 7.0, 21-23 °C, thiazole orange displaced, 1 μM neomycin, 1 μM quadruplex.
Experiment [7] concerns d(T4G4T4) (DNA, G4) TTTTGGGGTTTT
Kind of experiment: ITC. The note with it: 90 mM KCl; 10 mM sodium cacodylate, 0.5 mM EDTA, pH 7.0, 20 °C; one binding event, isotherm not fitted.

As to `NC[C@@H]1O[C@H](O[C@H]2[C@@H](O)[C@H](O[C@@H]3[C@@H](O)[C@H](N)C[C@H](N)[C@H]3O[C@H]3O[C@H](CN)[C@@H](O)[C@H](O)[C@H]3N)O[C@@H]2CO)[C@H](N)[C@@H](O)[C@@H]1O`, the binding result in experiment [1] and in experiment [7] was “yes” each time. Besides, the Ka is 59000 M⁻¹ in experiment [2] and 1.23 ± 0.05 × 10^6 M^-1 in experiment [3]. Further, in experiment [4], the association constant worked out at 723000 M⁻¹. The Ka1 in the experiment on d(TG4T) (DNA, G4) TGGGGT [5] (site 1 of 2) was 2.10 ± 0.80 × 10^8 M^-1. Also, the “% fluorescence change” value is on record as ~ 25% in the experiment on d(TG4T) (DNA, G4) TGGGGT [6] (30 mM NaCl) and ~ 15% in the experiment on d(TG4T) (DNA, G4) TGGGGT [6] (60 mM KCl).

With `NC[C@@H]1O[C@H](O[C@H]2[C@@H](O)[C@H](O[C@@H]3[C@@H](O)[C@H](N)C[C@H](N)[C@H]3O[C@H]3O[C@H](CO)[C@@H](O)[C@H](O)[C@H]3N)O[C@@H]2CO)[C@H](N)[C@@H](O)[C@@H]1O`, in the experiment on d(TG4T) (DNA, G4) TGGGGT [5] (isotherm could not be fitted, 300 μM titrant), the binding entry is recorded as “weak”.
